Source: US10745365B2, “Luminogenic and fluorogenic compounds and methods to detect molecules or conditions” (Promega Corporation, priority 2005, dated 2020)

Legend:
Format in all cases: biochemical
[1] = molecular target: T1, QuantiLum Luciferase (firefly luciferase) (Photinus pyralis, UniProt P08659); assay: Light emission of QuantiLum firefly luciferase with luciferin derivatives; settings: for Light emission, Alone: Alone (no addition)
T1 construct: purchased Promega Corporation El 70
Description: Gel and HPLC stop solution. Solid EDTA (free acid) was placed in a beaker with water and the pH of the solution adjusted to pH 7.0. The solution was then adjusted in volume to produce a solution 400 mM in EDTA.
Enzyme stop solution. A solution was prepared containing 20 mM Bis Tris, pH 6.5, 2 mM EDTA and 1 mg/ml bovine serum albumin.
Reaction buffer (2×). A solution was made containing 100 mM HEPES buffer, pH 8.0; 10 mM MgCl2.
DTT stock. Solid DTT (dithiothreitol) was dissolved in water and then adjusted to pH 8.0 with solid sodium hydroxide. The solution was then adjusted in volume to produce a solution 1 M in DTT.
(§1) After producing the solutions in Table 37, the volume of all reactions was adjusted to 990 μl with water. […] While the light reading was being taken, a 10 μl sample of the reaction was diluted to 500 μl with enzyme stop solution (cooled on ice to 4° C.) mixed and placed on ice and a second sample of 90 μl of reaction was added to 10 μl of Gel/HPLC stop and the tube placed at −20° C. A timer was started with the start of the first reaction and the start times of the remaining reactions was noted. At 15, 30, 45 and 60 minutes, each reaction was sampled as above and the light produced in the luminometer tubes was measured. At 7 and 22 minutes, the light produced in the luminometer tubes was read, but the reactions were not sampled.
as §1, with “40,” for “37,”, “−200” for “−20°”
The DTT, Coenzyme A, and QuantiLum stock solutions are the same as those described herein.
This solution was diluted 1:1 with water to produce an enzyme solution labeled “No addition.” This solution was diluted 1:1 with 400 mM DTT, pH 8.0 to produce a solution labeled+DTT. This solution was diluted 1: 1 with 4 mM Coenzyme A to produce a solution labeled+Co A. Finally, this solution was diluted 1: 1 with a solution having both 4 mM Coenzyme A and 400 mM DTT to produce a solution labeled+Co A & DTT.
50 μl samples of these solutions were placed in the wells of luminometer microtiter plates, row A to row G, respectively. Row H of the plates was given 50 μl of water.
Reactions in these plates were initiated by addition of 50 μl of solution containing QuantiLum luciferase using a 12 channel micropipette. The solutions added to the rows were: columns 1, 5, and 9—no addition solution; columns 2, 6, and 10—+Co A solution; columns 3, 7, and 11—+DTT solution, and; columns 4, 8, and 12—+Co A and DTT solution. After addition of the enzyme solution to the first row on every plate, a timer was started. After addition of the enzyme solution to the last row on each plate, the plate was sealed and read on a Veritas luminometer.

[2] = molecular target: T1, QuantiLum Luciferase (firefly luciferase); assay: Residual active QuantiLum luciferase after reaction with derivative (Steady Glo)
Description: as §1
After all samples were taken, 50 μl of the sample diluted into enzyme stop solution was mixed with 50 μl of Steady Glo Luciferase Reagent (Promega) and the light produced measured after incubating at room temperature for 10 minutes. This measured the active luciferase in the initial reaction.
as §1, with “40,” for “37,”, “−200” for “−20°”

[3] = tested on: thermostable luciferase (Luc 146-1H2); assay: Light emission of thermostable luciferase with luciferin derivatives; settings: 100 μM each
Description: This stock was used to produce enzyme stock solution having of 200 μg/ml enzyme solution in 1 mg/ml BSA, 200 mM HEPES buffer, pH 8.0, 20 mM MgCl2.
Solutions were made using a 1 M DTT solution, pH adjusted to 8.0, a 20 mM Coenzyme A solution in water (both described in examples above), a 100 mM ATP solution and water to create the following solutions: Sol′ A, 100 μM ATP; Sol′B, 100 μM ATP, 4 mM Coenzyme A; Sol′n C, 100 μM ATP, 400 mM DTT, and; Sol′n D, 100 μM ATP, 4 mM Coenzyme A and 400 mM DTT.
After assembly, the reactions were initiated by addition of 25 μl of the thermostable luciferase stock solution above and mixing the tube contents. A 50 μl sample was immediately removed and placed in a luminometer tube and the light read and the tube then replaced in a tube rack at room temperature. While the light reading was being taken, a 5 μl sample of the remaining reaction (which was kept at room temperature) was diluted into 495 μl of 50 mM BisTris, pH 6.5, 1 mg/ml BSA, 1 mM EDTA prechilled to 4° C. and the tube mixed and placed on ice. The light produced by the samples in the luminometer tubes were re-read at 20, 40, 60, 90 and 120 minutes post enzyme addition. Additional 5 μl samples were taken and diluted as above at 60 and 120 minutes post enzyme addition. Once all these readings and samples were taken, 50 μl of the diluted samples was mixed with 50 μl of Steady Glo in luminometer tubes, the tubes incubated 10 minutes […] then the light produced was read on a Turner TD 20/20 luminometer.

T1 sequence (P08659 whole entry): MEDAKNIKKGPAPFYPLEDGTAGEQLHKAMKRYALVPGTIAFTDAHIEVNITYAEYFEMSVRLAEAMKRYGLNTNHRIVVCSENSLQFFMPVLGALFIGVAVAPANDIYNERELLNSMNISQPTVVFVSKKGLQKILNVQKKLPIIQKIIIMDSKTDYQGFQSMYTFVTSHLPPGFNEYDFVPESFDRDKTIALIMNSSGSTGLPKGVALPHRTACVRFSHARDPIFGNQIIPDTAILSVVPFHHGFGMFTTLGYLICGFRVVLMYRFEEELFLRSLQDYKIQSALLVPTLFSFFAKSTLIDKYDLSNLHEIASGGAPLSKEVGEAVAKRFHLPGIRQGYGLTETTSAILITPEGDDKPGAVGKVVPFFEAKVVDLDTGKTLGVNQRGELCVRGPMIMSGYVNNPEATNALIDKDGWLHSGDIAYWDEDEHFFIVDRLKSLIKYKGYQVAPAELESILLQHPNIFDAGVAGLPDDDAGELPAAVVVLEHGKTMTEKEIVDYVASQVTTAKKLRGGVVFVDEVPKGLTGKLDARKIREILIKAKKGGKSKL

O=C(O)[C@H]1CSC(c2nc3ccc(OCc4ccccc4)cc3s2)=N1 [luciferin-6-benzylether, reference compound]
Light emission, Co A ([1]; Derivative Conc. 3.13 μM, +Co A): 55778
Light emission, Co A + DTT ([1]; Derivative Conc. 3.13 μM): 80626
Light emission, DTT ([1]; Derivative Conc. 3.13 μM, +DTT): 86445
Light emission, Alone ([1]; Derivative Conc. 3.13 μM): 32994
Light emission, Co A ([1]; Derivative Conc. 6.25 μM, +Co A): 58288
Light emission, Co A + DTT ([1]; Derivative Conc. 6.25 μM): 105912
Light emission, DTT ([1]; Derivative Conc. 6.25 μM, +DTT): 100044
Light emission, Alone ([1]; Derivative Conc. 6.25 μM): 38838
Light emission, Co A ([1]; Derivative Conc. 25 μM, +Co A): 53097
Light emission, Co A + DTT ([1]; Derivative Conc. 25 μM): 90306
Light emission, DTT ([1]; Derivative Conc. 25 μM, +DTT): 84034
Light emission, Alone ([1]; Derivative Conc. 25 μM): 40093
Light emission, Co A ([1]; Derivative Conc. 50 μM, +Co A): 38349
Light emission, Co A + DTT ([1]; Derivative Conc. 50 μM): 98716
Light emission, DTT ([1]; Derivative Conc. 50 μM, +DTT): 80001
Light emission, Alone ([1]; Derivative Conc. 50 μM): 30609
Light emission, Co A ([1]; Derivative Conc. 100 μM, +Co A): 33199
Light emission, Co A + DTT ([1]; Derivative Conc. 100 μM): 64460
Light emission, DTT ([1]; Derivative Conc. 100 μM, +DTT): 54592
Light emission, Alone ([1]; Derivative Conc. 100 μM): 31581

O=C(O)[C@H]1CSC(c2nc3ccc(OCc4ccccc4)cc3s2)=N1 [Luc’in BE]
Light reading from residual active enzyme at time 0 min ([2]; +Co A): 186.7
Light reading from residual active enzyme at time 15 min ([2]; +Co A): 179.6
Light reading from residual active enzyme at time 30 min ([2]; +Co A): 179.4
Light reading from residual active enzyme at time 45 min ([2]; +Co A): 157.9
Light reading from residual active enzyme at time 60 min ([2]; +Co A): 161.8
Light reading from residual active enzyme at time 0 min ([2]; +DTT): 194
Light reading from residual active enzyme at time 15 min ([2]; +DTT): 233.7
Light reading from residual active enzyme at time 30 min ([2]; +DTT): 224.7
Light reading from residual active enzyme at time 45 min ([2]; +DTT): 219.5
Light reading from residual active enzyme at time 60 min ([2]; +DTT): 226.4
Light reading from residual active enzyme at time 0 min ([2]; +EDTA): 170
Light reading from residual active enzyme at time 15 min ([2]; +EDTA): 142.7
Light reading from residual active enzyme at time 30 min ([2]; +EDTA): 140.4
Light reading from residual active enzyme at time 45 min ([2]; +EDTA): 141.7
Light reading from residual active enzyme at time 60 min ([2]; +EDTA): 135.4
Light reading from residual active enzyme at time 0 min ([2]; No addition): 129.7
Light reading from residual active enzyme at time 15 min ([2]; No addition): 69.9
Light reading from residual active enzyme at time 30 min ([2]; No addition): 47.31
Light reading from residual active enzyme at time 45 min ([2]; No addition): 37.94
Light reading from residual active enzyme at time 60 min ([2]; No addition): 29.08
Light reading from residual active enzyme at time 0 min ([2]; w/o ATP): 168.3
Light reading from residual active enzyme at time 15 min ([2]; w/o ATP): 174.1
Light reading from residual active enzyme at time 30 min ([2]; w/o ATP): 171.7
Light reading from residual active enzyme at time 45 min ([2]; w/o ATP): 172.9
Light reading from residual active enzyme at time 60 min ([2]; w/o ATP): 164
Light reading at time 0 min ([1]; +Co A): 139.5
Light reading at time 7 min ([1]; +Co A): 11.92
Light reading at time 15 min ([1]; +Co A): 10.99
Light reading at time 22 min ([1]; +Co A): 9.941
Light reading at time 30 min ([1]; +Co A): 7.379
Light reading at time 45 min ([1]; +Co A): 7.284
Light reading at time 60 min ([1]; +Co A): 6.433
Light reading at time 0 min ([1]; +DTT): 948
Light reading at time 7 min ([1]; +DTT): 532.8
Light reading at time 15 min ([1]; +DTT): 417
Light reading at time 22 min ([1]; +DTT): 369.5
Light reading at time 30 min ([1]; +DTT): 331.6
Light reading at time 45 min ([1]; +DTT): 273.5
Light reading at time 60 min ([1]; +DTT): 226.9
Light reading at time 0 min ([1]; +EDTA): 1.004
Light reading at time 7 min ([1]; +EDTA): 0.771
Light reading at time 15 min ([1]; +EDTA): 0.639
Light reading at time 22 min ([1]; +EDTA): 0.562
Light reading at time 30 min ([1]; +EDTA): 0.461
Light reading at time 45 min ([1]; +EDTA): 0.425
Light reading at time 60 min ([1]; +EDTA): 0.354
Light reading at time 0 min ([1]; No addition): 135.2
Light reading at time 7 min ([1]; No addition): 22.61
Light reading at time 15 min ([1]; No addition): 12.79
Light reading at time 22 min ([1]; No addition): 9.256
Light reading at time 30 min ([1]; No addition): 6.928
Light reading at time 45 min ([1]; No addition): 4.879
Light reading at time 60 min ([1]; No addition): 3.311
Light reading at time 0 min ([1]; w/o ATP): 0.015
Light reading at time 7 min ([1]; w/o ATP): 0
Light reading at time 15 min ([1]; w/o ATP): 0.008
Light reading at time 22 min ([1]; w/o ATP): 0.005
Light reading at time 30 min ([1]; w/o ATP): 0
Light reading at time 45 min ([1]; w/o ATP): 0
Light reading at time 60 min ([1]; w/o ATP): 0.01

CN(C)c1ccc2nc(C3=NC(C(=O)O)CS3)sc2c1 (stereo not shown) [dimethyl amino luciferin]
brightness relative to amino luciferin [3]: only about half as bright

O=C(O)C1CSC(c2nc3ccc(NCCCO)cc3s2)=N1 (stereo not shown) [N-(3-hydroxypropyl)-aminoluciferin]
luciferase substrate [1]: substrate for luciferase that provides sufficient light output for a luminescence reaction
